Patent US11999727B2 (Tango Therapeutics, Inc., priority 2020, dated 2024)

Experiments:
PRMT5 [1] = target: T1, PRMT5 (Homo sapiens, UniProt O14744); assay: PRMT5 biochemical IC50 assay with SAM as cofactor; conditions: PRMT5, SAM as cofactor; read-out: SAM IC50
T1 construct: purchased Viva (custom protein)

[2] = test system: HAP1 MTAP-deleted cell line; assay: SDMA in-cell western assay, HAP1 MTAP-deleted; assay type: cell-based; conditions: for IC50: Homo sapiens, HAP1, SDMA in-cell western, HAP1 MTAP-deleted, read-out: HAP1 MTAP deleted IC50; for MTAP intact/deleted ratio: IC50 ratio HAP1 MTAP-intact / HAP1 MTAP-deleted, SDMA in-cell western
Summary of the method: (§1)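 Readout: in-cell western detection of SDMA. Cells: HAP1 expressing endogenous MTAP and an MTAP-null HAP1 counterpart. Output: IC50.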

PRMT5 [3] = target: T1, PRMT5; assay: PRMT5 biochemical IC50 assay with no cofactor; conditions: PRMT5, no cofactor; read-out: No Cofactor/rel IC50
Text: Table 1 indicates IC50 values (μM) against PRMT5 for exemplary compounds in the presence of SAM as cofactor, with no cofactor, and with MTA as cofactor, respectively (columns 4-6). […] Ki values can be calculated from the IC50 values as described in the Examples section. As detailed in the Examples section, for the assay performed in the presence of SAM, IC50=Ki×1.5 (Ki=IC50/1.5).

[4] = test system: HAP1 MTAP-intact cell line; assay: SDMA in-cell western assay, HAP1 MTAP-intact; assay type: cell-based; conditions: Homo sapiens, HAP1, SDMA in-cell western, HAP1 MTAP-intact; read-out: MTAP HAP1 intact IC50
Summary of the method: as §1

[5] = test system: HAP1 MTAP-deleted cell line; assay: Viability assay, MTAP-deleted cell line; assay type: cell-based; conditions: Homo sapiens, HAP1, viability assay, HAP1 MTAP-deleted; read-out: HAP1 MTAP deleted viability
Text: Table 1 additionally indicates IC50 values in a viability assay for the MTAP-deleted cell line (column 10), indicating the effect of treatment with compound on cell survival.

PRMT5 [6] = target: T1, PRMT5; assay: PRMT5 biochemical IC50 assay with MTA as cofactor; conditions: PRMT5, MTA as cofactor; read-out: MTA IC50

T1 sequence (O14744 whole entry): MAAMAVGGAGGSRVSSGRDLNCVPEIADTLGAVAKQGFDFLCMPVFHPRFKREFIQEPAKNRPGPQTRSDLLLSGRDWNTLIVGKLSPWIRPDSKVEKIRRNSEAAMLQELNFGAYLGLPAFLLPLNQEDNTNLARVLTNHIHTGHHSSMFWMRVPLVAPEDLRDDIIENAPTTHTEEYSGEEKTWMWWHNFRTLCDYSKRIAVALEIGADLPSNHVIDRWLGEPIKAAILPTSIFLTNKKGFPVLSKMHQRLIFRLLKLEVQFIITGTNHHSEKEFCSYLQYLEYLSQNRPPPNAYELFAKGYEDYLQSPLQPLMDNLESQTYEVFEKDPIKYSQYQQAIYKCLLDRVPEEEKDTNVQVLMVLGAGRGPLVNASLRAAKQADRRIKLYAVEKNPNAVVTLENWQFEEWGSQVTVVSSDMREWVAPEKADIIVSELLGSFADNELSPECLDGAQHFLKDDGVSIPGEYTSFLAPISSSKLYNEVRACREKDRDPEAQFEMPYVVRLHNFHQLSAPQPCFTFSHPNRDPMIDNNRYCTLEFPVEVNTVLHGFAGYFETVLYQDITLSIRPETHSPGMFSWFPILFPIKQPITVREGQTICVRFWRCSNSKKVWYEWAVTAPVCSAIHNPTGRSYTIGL
T1 sequence (Q9BQA1 whole entry partner): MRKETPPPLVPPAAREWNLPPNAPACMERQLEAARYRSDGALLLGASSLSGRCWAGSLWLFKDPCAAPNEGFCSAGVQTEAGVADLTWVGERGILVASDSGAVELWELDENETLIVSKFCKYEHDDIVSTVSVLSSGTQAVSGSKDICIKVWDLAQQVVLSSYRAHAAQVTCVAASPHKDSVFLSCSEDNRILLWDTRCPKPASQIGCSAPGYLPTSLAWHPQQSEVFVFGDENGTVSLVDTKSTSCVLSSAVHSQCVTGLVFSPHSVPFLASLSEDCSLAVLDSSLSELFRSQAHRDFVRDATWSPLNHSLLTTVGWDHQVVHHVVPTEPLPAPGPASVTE

Row | IC50 (PRMT5 [1]) [nM] | IC50 [2] [nM] | IC50 (PRMT5 [3]) [nM] | IC50 [4] [nM] | IC50 (PRMT5 [6]) [nM] | Structure (SMILES) | MTAP intact/deleted ratio [2] | IC50 [5] [nM]
1 | > 500 | > 1000 | > 500 | > 1000 | > 500 | C[C@@H]1CN(C(=O)C(=O)Nc2cncc(C(N)=O)c2)[C@@H](c2ccc(F)c(F)c2)CC1(F)F (single isomer, unassigned) [Compound 706] | B (an IC50 ratio greater than or equal to 3 fold but lower than 10 fold) | > 10000
2 | > 500 | > 1000 | > 500 | > 1000 | > 500 | Cc1ccc([C@H]2CC[C@H](C)CN2C(=O)C(=O)Nc2cnc(N)c(C)c2)cn1 (single isomer, unassigned) [Compound 707] | B (an IC50 ratio greater than or equal to 3 fold but lower than 10 fold) | > 10000
3 | > 500 | > 1000 | > 500 | > 1000 | 50 to 500 | CCc1cc(NC(=O)C(=O)N2C[C@@H](C)CC[C@@H]2c2ccccc2)cnc1N (single isomer, unassigned) [Compound 709] | C (an IC50 ratio of less than 3 fold) | > 10000
4 | > 500 | > 1000 | > 500 | > 1000 | > 500 | CC(=O)Nc1ccc([C@H]2CC[C@H](C)CN2C(=O)C(=O)Nc2cnc(N)c(C)c2)s1 (single isomer, unassigned) [Compound 717] | C (an IC50 ratio of less than 3 fold) | > 10000
5 | > 500 | > 1000 | > 500 | > 1000 | > 500 | C[C@@H]1CN(C(=O)C(=O)Nc2cncc(C(N)=O)c2)[C@@H](c2ccc(F)cc2)CC1(F)F (single isomer, unassigned) [Compound 718] | C (an IC50 ratio of less than 3 fold) | > 10000
6 | 50 to 500 | < 100 | < 50 | 100 to 1000 | < 50 | Cc1nc2cc([C@H]3CC[C@H](C)CN3C(=O)C(=O)Nc3cnc(N)c(C)c3)ccc2s1 (single isomer, unassigned) [Compound 719] | A (an IC50 ratio greater than or equal to 10 fold) | < 1000
7 | 50 to 500 | < 100 | < 50 | 100 to 1000 | < 50 | CCc1cc(NC(=O)C(=O)N2C[C@H](C)CC[C@H]2c2ccc3c(c2)CCC(=O)N3)cnc1N (single isomer, unassigned) [Compound 720] | A (an IC50 ratio greater than or equal to 10 fold) | < 1000
8 | 50 to 500 | < 100 | < 50 | > 1000 | < 50 | CCc1cc(NC(=O)C(=O)N2C[C@@H](C)C(F)(F)C[C@@H]2c2ccc(F)c(F)c2)cnc1N (single isomer, unassigned) [Compound 721] | A (an IC50 ratio greater than or equal to 10 fold) | < 1000
9 | 50 to 500 | > 1000 | 50 to 500 | > 1000 | < 50 | CNS(=O)(=O)c1ccc([C@H]2CC[C@H](C)CN2C(=O)C(=O)Nc2cncc(C(N)=O)c2)cc1 (single isomer, unassigned) [Compound 722] | C (an IC50 ratio of less than 3 fold) | > 10000
10 | > 500 | > 1000 | > 500 | > 1000 | > 500 | C[C@H]1CC[C@H](c2ccc(S(N)(=O)=O)cc2)N(C(=O)C(=O)Nc2cncc(C(N)=O)c2)C1 (single isomer, unassigned) [Compound 724] | C (an IC50 ratio of less than 3 fold) | > 10000
11 | 50 to 500 | > 1000 | 50 to 500 | > 1000 | < 50 | C[C@@H]1CC[C@@H](c2ccc(S(N)(=O)=O)cc2)N(C(=O)C(=O)Nc2cncc(C(N)=O)c2)C1 (single isomer, unassigned) [Compound 725] | C (an IC50 ratio of less than 3 fold) | > 10000
12 | 50 to 500 | < 100 | < 50 | > 1000 | < 50 | Cc1ncc(NC(=O)C(=O)N2C[C@H](C)CC[C@H]2c2ccc3c(c2)CCC(=O)N3)cc1Cl (single isomer, unassigned) [Compound 726] | A (an IC50 ratio greater than or equal to 10 fold) | < 1000
13 | > 500 | > 1000 | > 500 | > 1000 | > 500 | Cc1ncc(NC(=O)C(=O)N2C[C@@H](C)CC[C@@H]2c2ccc3c(c2)CCC(=O)N3)cc1Cl (single isomer, unassigned) [Compound 727] | C (an IC50 ratio of less than 3 fold) | > 10000
14 | > 500 | > 1000 | > 500 | > 1000 | > 500 | CCc1cc(NC(=O)C(=O)N2C[C@H](C)C(F)(F)C[C@H]2c2ccc(F)c(F)c2)cnc1N (single isomer, unassigned) [Compound 728] | C (an IC50 ratio of less than 3 fold) | > 10000
15 | > 500 | 100 to 1000 | > 500 | > 1000 | > 500 | CCc1cc(NC(=O)C(=O)N2C[C@@H](C)CC[C@@H]2c2ccc3c(c2)CCC(=O)N3)cnc1N (single isomer, unassigned) [Compound 729] | A (an IC50 ratio greater than or equal to 10 fold) | 1000 to 10000
16 | > 500 | > 1000 | > 500 | > 1000 | > 500 | Cc1nc2cc([C@@H]3CC[C@@H](C)CN3C(=O)C(=O)Nc3cnc(N)c(C)c3)ccc2s1 (single isomer, unassigned) [Compound 730] | C (an IC50 ratio of less than 3 fold) | > 10000
17 | 50 to 500 | < 100 | 50 to 500 | > 1000 | < 50 | C[C@H]1CN(C(=O)C(=O)Nc2cncc(C(N)=O)c2)[C@H](c2ccc(F)cc2)CC1(F)F (single isomer, unassigned) [Compound 731] | A (an IC50 ratio greater than or equal to 10 fold) | 1000 to 10000
18 | 50 to 500 | 100 to 1000 | 50 to 500 | > 1000 | < 50 | CC(=O)Nc1ccc([C@@H]2CC[C@@H](C)CN2C(=O)C(=O)Nc2cnc(N)c(C)c2)s1 (single isomer, unassigned) [Compound 732] | A (an IC50 ratio greater than or equal to 10 fold) | 1000 to 10000
19 | 50 to 500 | < 100 | < 50 | 100 to 1000 | < 50 | Cc1cc(NC(=O)C(=O)N2C[C@@H](C)CC[C@@H]2c2ccc(C(N)=O)s2)cnc1N (single isomer, unassigned) [Compound 733] | A (an IC50 ratio greater than or equal to 10 fold) | < 1000
20 | 50 to 500 | < 100 | < 50 | > 1000 | < 50 | Cc1cc(NC(=O)C(=O)N2C[C@@H](C)CC[C@@H]2c2cc(F)cc(F)c2)cnc1N (single isomer, unassigned) [Compound 734, N-(6-amino-5-methylpyridin-3-yl)-2-(2-(3,5-difluorophenyl)-5-methylpiperidin-1-yl)-2-oxoacetamide] | A (an IC50 ratio greater than or equal to 10 fold) | 1000 to 10000
21 | < 50 | < 100 | < 50 | 100 to 1000 | < 50 | Cc1cc(NC(=O)C(=O)N2C[C@H](C)C(F)(F)C[C@H]2c2ccccc2)cnc1N (single isomer, unassigned) [Compound 735] | A (an IC50 ratio greater than or equal to 10 fold) | < 1000
22 | 50 to 500 | < 100 | < 50 | > 1000 | < 50 | CCc1cc(NC(=O)C(=O)N2C[C@H](C)CC[C@H]2c2ccccc2)cnc1N (single isomer, unassigned) [Compound 736] | A (an IC50 ratio greater than or equal to 10 fold) | < 1000
23 | > 500 | > 1000 | > 500 | > 1000 | > 500 | COc1ncc(NC(=O)C(=O)N2C[C@@H](C)CC[C@@H]2c2cc(F)c(F)c(F)c2)cc1C(N)=O (single isomer, unassigned) [Compound 739] | B (an IC50 ratio greater than or equal to 3 fold but lower than 10 fold) | > 10000
